Data as given in ChEMBL document CHEMBL5321270, “Discovery of Pyrazolone Carbothioamide Derivatives as Inhibitors of the Pdr1-KIX Interaction for Combinational Treatment of Azole-Resistant Candidiasis” (J Med Chem, 2023).
pKi: −log10 of the molar value. Converted amounts (≈) assume the structure as drawn. The source made the active and inactive calls. The calls are words filed in the database; no cut-off is given here.

Columns and labels:
Nakaseomyces glabratus [1] = assay: Synergistic antifungal activity against fluconazole-resistant Candida glabrata 0161 assessed as inhibition of Rhodamine 6G efflux at 1 to 8 ug/ml incubated for 25 hrs in presence of fluconazole by Rhodamine 6G staining based fluorescence assay; type: functional, organism-based; details: dose 1-8 µg/ml
[2] = AUC (0-t) in ICR mouse at 2 mg/kg,iv measured upto 24 hrs by LC-MS/MS analysis; type: ADME, organism-based; parameters: time < 24 hrs, dose 2 mg/kg, route iv; details: in vivo
[3] = Half life in ICR mouse at 10 mg/kg,po measured upto 24 hrs by LC-MS/MS analysis; type: ADME, organism-based; details: in vivo
Nakaseomyces glabratus [4] = assay: Antifungal activity against FLC-resistant Candida glabrata 0161 infected in cyclophosphamide immunosuppressed ICR mouse model assessed as pathological change in kidney at 5 mg/kg,ip administrated for 5 days by Hematoxylin and eosin staining based analysis; type: functional, organism-based; details: time 5.0 day
Nakaseomyces glabratus [5] = assay: Synergistic antifungal activity against fluconazole-resistant Candida glabrata 0161 assessed as downregulation of CDR1 gene expression at 4 ug/ml in presence of fluconazole by RT-PCR analysis; type: functional, organism-based; details: dose 4.0 µg/ml
[6] = Cmax in ICR mouse at 10 mg/kg,po measured upto 24 hrs by LC-MS/MS analysis; type: ADME, organism-based; parameters: dose 10 mg/kg, time < 24 hrs, route po; details: in vivo
Nakaseomyces glabratus [7] = assay: Antifungal activity against fluconazole-resistant Candida glabrata 0161 assessed as fluconazole fractional inhibitory concentration incubated for 48 hrs in presence of fluconazole by microplate reader assay; type: functional
Nakaseomyces glabratus [8] = assay: Synergistic antifungal activity against fluconazole-resistant Candida glabrata 0161 assessed as downregulation of CDR2 gene expression at 4 ug/ml in presence of fluconazole by RT-PCR analysis; type: functional, organism-based; details: dose 4.0 µg/ml
Nakaseomyces glabratus [9] = assay: Antifungal activity against fluconazole-resistant Candida glabrata 9256 assessed as fungal growth inhibition incubated for 48 hrs by microplate reader assay; type: functional
Nakaseomyces glabratus [10] = assay: Antifungal activity against FLC-resistant Candida glabrata 0161 infected in cyclophosphamide immunosuppressed ICR mouse model assessed as inhibition of fungal growth in kidney at ip administration for 5 days; type: functional, organism-based; details: time 5.0 day
[11] = Clearance in ICR mouse at 2 mg/kg,iv measured upto 24 hrs by LC-MS/MS analysis; type: ADME, organism-based; details: in vivo
[12] = Inhibition of fluorescent probe FITC tagged PDR1-KIX domain (unknown origin) protein-protein interaction assessed as inhibition constant incubated for 2 hrs by fluorescence polarization binding assay
Trichophyton rubrum = assay: Antifungal activity against Trichophyton rubrum assessed as fungal growth inhibition incubated for 48 hrs by microplate reader assay; type: functional
Nakaseomyces glabratus [13] = assay: Antifungal activity against fluconazole-resistant Candida glabrata 0161 assessed as increase in Nile red accumulation at 50 uM incubated for 30 mins by nile red staining based confocal microscopic analysis; type: functional, organism-based
Cryptococcus neoformans = assay: Antifungal activity against Cryptococcus neoformans H99 assessed as fungal growth inhibition incubated for 48 hrs by microplate reader assay; type: functional
[14] = AUC (0-t) in ICR mouse at 10 mg/kg,po measured upto 24 hrs by LC-MS/MS analysis; type: ADME, organism-based; parameters: time < 24 hrs, dose 10 mg/kg, route po; details: in vivo
Nakaseomyces glabratus [15] = assay: Antifungal activity against fluconazole-resistant Candida glabrata 0161 assessed as inhibition of fungal growth at 2 to 16 ug/ml incubated for 48 hrs by Spot plating assay; type: functional, organism-based; details: dose 2-16 µg/ml
Nakaseomyces glabratus [16] = assay: Antifungal activity against fluconazole-resistant Candida glabrata 0161 assessed as fractional inhibitory concentration incubated for 48 hrs in presence of fluconazole by microplate reader assay; type: functional
[Candida] auris [17] = Antifungal activity against Candida auris 0030 assessed as fungal growth inhibition incubated for 48 hrs by microplate reader assay; type: functional; details: Candidozyma auris
Nakaseomyces glabratus [18] = assay: Antifungal activity against fluconazole-resistant Candida glabrata 0161 assessed as inhibition of fungal biofilm formation at 32 ug/ml incubated for 24 hrs by XXT reduction menadione assay; type: functional
[19] = Cytotoxicity against human HUVEC cells incubated for 48 hrs by CCK-8 assay; type: toxicity, cell-based
Nakaseomyces glabratus [20] = assay: Antifungal activity against fluconazole-resistant Candida glabrata 0161 assessed as fungal growth inhibition incubated for 48 hrs by microplate reader assay; type: functional
Nakaseomyces glabratus [21] = assay: Synergistic antifungal activity against FLC-resistant Candida glabrata 0161 infected in cyclophosphamide immunosuppressed ICR mouse model assessed as inhibition of fungal growth in kidney at 5 mg/kg,ip administrated in presence of fluconazole for 5 days; type: functional, organism-based; details: time 5.0 day
Aspergillus fumigatus = assay: Antifungal activity against Aspergillus fumigatus 7544 assessed as fungal growth inhibition incubated for 48 hrs by microplate reader assay; type: functional
[22] = Tmax in ICR mouse at 2 mg/kg,iv measured upto 24 hrs by LC-MS/MS analysis; type: ADME, organism-based; details: in vivo
[23] = Cmax in ICR mouse at 2 mg/kg,iv measured upto 24 hrs by LC-MS/MS analysis; type: ADME, organism-based; parameters: dose 2 mg/kg, time < 24 hrs, route iv; details: in vivo
Nakaseomyces glabratus [24] = assay: Synergistic antifungal activity against fluconazole-resistant Candida glabrata 0161 assessed as inhibition of fungal growth at 2 to 16 ug/ml incubated for 48 hrs in presence of fluconazole by Spot plating assay; type: functional, organism-based; details: dose 2-16 µg/ml
Candida parapsilosis = assay: Antifungal activity against Candida parapsilosis 20090 assessed as fungal growth inhibition incubated for 48 hrs by microplate reader assay; type: functional; details: Lodderomyces parapsilosis
Nakaseomyces glabratus [25] = assay: Antifungal activity against FLC-resistant Candida glabrata 0161 infected in cyclophosphamide immunosuppressed ICR mouse model assessed as inhibition of fungal growth in kidney at 40 mg/kg,ip administrated for 5 days; type: functional, organism-based; details: time 5.0 day
Nakaseomyces glabratus [26] = assay: Antifungal activity against fluconazole-resistant Candida glabrata 0161 assessed as fungal growth inhibition at 4 ug/ml incubated for 48 hrs by time-growth curve assay; type: functional, organism-based; details: dose 4.0 µg/ml
[27] = Half life in ICR mouse at 2 mg/kg,iv measured upto 24 hrs by LC-MS/MS analysis; type: ADME, organism-based; details: in vivo
[28] = AUC (0-infinity) in ICR mouse at 10 mg/kg,po measured upto 24 hrs by LC-MS/MS analysis; type: ADME, organism-based; parameters: time < 24 hrs, dose 10 mg/kg, route po; details: in vivo
[29] = Tmax in ICR mouse at 10 mg/kg,po measured upto 24 hrs by LC-MS/MS analysis; type: ADME, organism-based; details: in vivo
[Candida] auris [30] = Antifungal activity against Candida auris 15448 assessed as fungal growth inhibition incubated for 48 hrs by microplate reader assay; type: functional; details: Candidozyma auris
Nakaseomyces glabratus [31] = assay: Antifungal activity against FLC-resistant Candida glabrata 0161 infected in cyclophosphamide immunosuppressed ICR mouse model assessed as inhibition of fungal growth in kidney at 5 mg/kg,ip administrated for 5 days; type: functional, organism-based; details: time 5.0 day
Nakaseomyces glabratus [32] = assay: Synergistic antifungal activity against fluconazole-resistant Candida glabrata 0161 assessed as fractional inhibitory concentration index incubated for 48 hrs in presence of fluconazole by checkerboard microdilution method; type: functional
Nakaseomyces glabratus [33] = assay: Antifungal activity against fluconazole-resistant Candida glabrata 8535 assessed as fungal growth inhibition incubated for 48 hrs by microplate reader assay; type: functional
Nakaseomyces glabratus [34] = assay: Synergistic antifungal activity against fluconazole-resistant Candida glabrata 0161 assessed as inhibition of fungal mature biofilm formation at 1 to 64 ug/ml incubated for 24 hrs in presence of fluconazole by XXT reduction menadione assay; type: functional, organism-based; details: dose 1-64 µg/ml
Candida tropicalis = assay: Antifungal activity against Candida tropicalis 10186 assessed as fungal growth inhibition incubated for 48 hrs by microplate reader assay; type: functional
[35] = Oral bioavailability in ICR mouse at 10 mg/kg measured upto 24 hrs by LC-MS/MS analysis; type: ADME, organism-based; details: in vivo
[36] = Aqueous solubility of compound; type: physicochemical
Nakaseomyces glabratus [37] = assay: Synergistic antifungal activity against FLC-resistant Candida glabrata 0161 infected in cyclophosphamide immunosuppressed ICR mouse model assessed as reduction in kidney fungal infection at 5 mg/kg,ip administrated for 5 days in presence of fluconazole by Hematoxylin and eosin staining based analysis; type: functional, organism-based; details: time 5.0 day

Nc1cc(=O)n(C(=S)Nc2ccc3c(c2)CCC3)[nH]1
Activity (Nakaseomyces glabratus [1]): Active | AUC(0-t) at 24 h [2]: 489 ng·h/mL | half-life [3]: 36 min | Activity (Nakaseomyces glabratus [4]): Active | Activity (Nakaseomyces glabratus [5]): Active | Cmax [6]: 875 ng/mL | fluconazole MIC in combination (Nakaseomyces glabratus [7]): 1 µg/mL | Activity (Nakaseomyces glabratus [8]): Active | MIC (Nakaseomyces glabratus [9]): 0.25 µg/mL (≈ 0.911 µM) | Activity (Nakaseomyces glabratus [10]): Dose-Dependent Effect | clearance [11]: 68.6 mL/min/kg | pKi [12]: 4.93 | MIC (Trichophyton rubrum): 1 µg/mL (≈ 3.64 µM) | Activity (Nakaseomyces glabratus [13]): Active | MIC (Cryptococcus neoformans): 0.063 µg/mL (≈ 0.23 µM) | AUC(0-t) at 24 h [14]: 389 ng·h/mL | Activity (Nakaseomyces glabratus [15]): Active | FIC (Nakaseomyces glabratus [16]): 0.063 µg/mL | MIC ([Candida] auris [17]): 2 µg/mL (≈ 7.29 µM) | inhibition at 32 µg/mL (Nakaseomyces glabratus [18]): 40% | IC50 at 48 h [19]: > 83 µM | MIC (Nakaseomyces glabratus [20]): 0.25 µg/mL (≈ 0.911 µM) | Activity (Nakaseomyces glabratus [21]): Active | MIC (Aspergillus fumigatus): 16 µg/mL (≈ 58.3 µM) | Tmax [22]: 4.8 min | Cmax [23]: 1520 ng/mL | Activity (Nakaseomyces glabratus [24]): Active | MIC (Candida parapsilosis): 4 µg/mL (≈ 14.6 µM) | Activity (Nakaseomyces glabratus [25]): Active | Activity (Nakaseomyces glabratus [26]): Active | half-life [27]: 51.6 min | AUC(0-inf) [28]: 390 ng·h/mL | Tmax [29]: 15 min | MIC ([Candida] auris [30]): 2 µg/mL (≈ 7.29 µM) | Activity (Nakaseomyces glabratus [31]): Active | fractional inhibitory concentration index (FICI) (Nakaseomyces glabratus [32]): 0.28 | MIC (Nakaseomyces glabratus [33]): 0.25 µg/mL (≈ 0.911 µM) | inhibition (Nakaseomyces glabratus [34]): Active | MIC (Candida tropicalis): 4 µg/mL (≈ 14.6 µM) | bioavailability [35]: 15.9% | solubility [36]: 22.1 µg/mL (≈ 80.4 µM) | Activity (Nakaseomyces glabratus [37]): Active
